{"source": "paper PMC3604699", "about": "(Biochemistry, 2011)", "target": "sortase A (SrtA) (Staphylococcus aureus, UniProt Q2FV99)", "sequence (Q2FV99 25-206)": "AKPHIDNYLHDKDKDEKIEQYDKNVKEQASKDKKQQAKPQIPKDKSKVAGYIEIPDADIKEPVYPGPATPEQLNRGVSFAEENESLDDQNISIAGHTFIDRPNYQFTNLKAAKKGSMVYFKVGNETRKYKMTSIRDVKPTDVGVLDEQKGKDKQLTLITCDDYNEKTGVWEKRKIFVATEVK", "experiment": "HPLC transpeptidation assay, time-dependent inactivation kinetics", "assay_type": "biochemical", "conditions": "read-out: KI"}
{"smiles": "OCl", "note": "[NaOCl]", "values": [{"measurement": "KI (inactivation)", "value": "11.8 ± 3.1", "unit": "mM"}]}
